# Test results: patent US10428104B2, “Substituted nucleoside derivatives useful as anticancer agents” (Pfizer Inc., priority 2015, dated 2019)
# Assays:
# [1] = target: PRMT5/MEP50 protein complex (Homo sapiens (Human), UniProt O14744); test: PRMT5 biochemical assay (3H-SAM methylation of H4(1-21) peptide, filter plate scintillation counting); conditions: PRMT5 enzyme inhibition; 10 nM PRMT5/MEP50 complex, 200 nM H4(1-21) peptide, 1 uM SAM, 25 minute incubation at room temperature
# Procedure, shortened: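 Flag-PRMT5/MEP50 was co-expressed in Sf21 cells and Flag-affinity purified. Reactions used 10 nM complex, 200 nM H4(1-21) peptide and 1 uM 3H-SAM (final) in 50 mM Tris pH 8.5, 50 mM NaCl, 5 mM MgCl2, 1 mM EDTA and 1 mM TCEP, run 25 min at room temperature. Reactions were TCA-stopped, filter-captured and scintillation-counted; IC50 came from a 4-parameter fit.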
# [2] = system: A549 lung adenocarcinoma cells; test: A549 proliferation assay (Cell Titer Glo, 7 days); format: cell-based; conditions: Homo sapiens, 168 h, 7 days with compound, cell viability by Cell Titer Glo (ATP)
# Description: A549 lung adenocarcinoma cells (American Type CuIture Collection) were maintained in DMEM growth media (Life Technologies) supplemented with 10% v/v heat inactivated fetal bovine serum (Sigma) and cultured at 37° C., 5% CO2. Exponentially growing A549 cells were plated in 96-well black tissue culture treated plates (Corning) at a density of 2500 cells/ml in a volume of 100 μl culture media and allowed to adhere overnight at 37° C., 5% CO2. The following day, compound plates were prepared by making nine-point 3.3-fold dilutions in DMSO with a top concentration of 10 mM. Compounds were further diluted in culture media and 11 μl was added to the cells (final top assay concentration was 10 μM and DMSO was […]). Cells were incubated with compound at 37° C., 5% CO2 for 7 days with media and compound replacement on day 4. Cell viability was assayed on Day 7 by adding 100 μl Cell Titer Glo (Promega) reagent to the plate to measure the amount of ATP present in the cells. Luminescence was read using the Envision 2104 Multilabel Reader (Perkin Elmer).
# Results for the A549 proliferation assay of examples are summarized in Table 2, shown as IC50 values in μM.
# Chain of PRMT5/MEP50 protein complex (O14744 other isoform, or with tags, fused parts or gaps): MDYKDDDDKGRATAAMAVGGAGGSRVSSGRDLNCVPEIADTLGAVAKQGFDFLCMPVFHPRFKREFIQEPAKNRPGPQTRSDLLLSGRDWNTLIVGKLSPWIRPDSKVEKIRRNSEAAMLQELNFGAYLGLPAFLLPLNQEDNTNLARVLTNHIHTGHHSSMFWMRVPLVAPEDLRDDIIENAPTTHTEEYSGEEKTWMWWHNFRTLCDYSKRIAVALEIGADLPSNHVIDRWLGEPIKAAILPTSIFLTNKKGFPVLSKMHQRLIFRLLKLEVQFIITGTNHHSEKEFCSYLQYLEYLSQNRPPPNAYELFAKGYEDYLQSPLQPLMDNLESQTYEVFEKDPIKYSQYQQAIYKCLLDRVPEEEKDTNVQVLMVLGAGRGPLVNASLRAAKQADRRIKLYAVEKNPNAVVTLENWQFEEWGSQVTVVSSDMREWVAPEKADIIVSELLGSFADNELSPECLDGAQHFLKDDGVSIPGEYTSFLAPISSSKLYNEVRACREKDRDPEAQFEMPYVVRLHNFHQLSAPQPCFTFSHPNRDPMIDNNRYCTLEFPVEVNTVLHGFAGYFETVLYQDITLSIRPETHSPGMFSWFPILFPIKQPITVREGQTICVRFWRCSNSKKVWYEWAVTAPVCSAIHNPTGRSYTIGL
# Chain of PRMT5/MEP50 protein complex (Q9BQA1 whole entry partner): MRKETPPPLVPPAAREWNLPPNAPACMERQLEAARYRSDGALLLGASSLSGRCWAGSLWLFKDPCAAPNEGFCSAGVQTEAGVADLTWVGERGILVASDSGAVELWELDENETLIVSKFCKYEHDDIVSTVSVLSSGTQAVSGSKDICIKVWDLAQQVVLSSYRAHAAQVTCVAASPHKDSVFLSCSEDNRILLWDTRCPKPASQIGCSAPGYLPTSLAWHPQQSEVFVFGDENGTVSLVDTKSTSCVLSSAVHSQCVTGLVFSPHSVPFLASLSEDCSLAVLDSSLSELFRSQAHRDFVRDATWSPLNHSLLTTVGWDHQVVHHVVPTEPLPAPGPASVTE
IC50 [1],IC50 [2],Structure (SMILES)
21 nM,364 nM,"Cc1nc(C)c2ccn([C@@H]3O[C@H]([C@H](O)c4ccc(F)cc4)[C@@H](O)[C@H]3O)c2n1 [Example 99, (2R,3R,4S,5R)-2-(2,4-dimethyl-7H-pyrrolo[2,3-d]pyrimidin-7-yl)-5-((R)-(4-fluorophenyl)(hydroxy)methyl)tetrahydrofuran-3,4-diol]"
6 nM,44 nM,"Cc1ncnc2c1ccn2[C@@H]1O[C@H]([C@H](O)c2cc(F)cc(F)c2)[C@@H](O)[C@H]1O [Example 36, (2R,3S,4R,5R)-2-((R)-(3,5-difluorophenyl)(hydroxy)methyl)-5-(4-methyl-7H-pyrrolo[2,3-d]pyrimidin-7-yl)tetrahydrofuran-3,4-diol]"
12 nM,148 nM,"Cc1cc(C(O)[C@H]2O[C@@H](n3ccc4c(C)ncnc43)[C@H](O)[C@@H]2O)ccn1 (stereo in doubt) [Example 111, (2R,3S,4R,5R)-2-((R)-hydroxy(2-methylpyridin-4-yl)methyl)-5-(4-methyl-7H-pyrrolo[2,3-d]pyrimidin-7-yl)tetrahydrofuran-3,4-diol]"
12 nM,100 nM,"COc1cc([C@@H](O)[C@H]2O[C@@H](n3ccc4c(C)ncnc43)[C@H](O)[C@@H]2O)ccc1F [Example 12, (2R,3S,4R,5R)-2-((R)-(4-fluoro-3-methoxyphenyl)(hydroxy)methyl)-5-(4-methyl-7H-pyrrolo[2,3-d]pyrimidin-7-yl)tetrahydrofuran-3,4-diol]"
18 nM,250 nM,"Cc1ncnc2c1c(F)cn2[C@@H]1O[C@H]([C@H](O)c2ccc(F)cc2)[C@@H](O)[C@H]1O [Example 98, (2R,3R,4S,5R)-2-(5-fluoro-4-methyl-7H-pyrrolo[2,3-d]pyrimidin-7-yl)-5-((R)-(4-fluorophenyl)(hydroxy)methyl)tetrahydrofuran-3,4-diol]"
38 nM,3400 nM,"CCC[C@@H](O)[C@H]1O[C@@H](n2ccc3c(C)nc(N)nc32)[C@H](O)[C@@H]1O [Example 63, (2R,3R,4S,5R)-2-(2-amino-4-methyl-7H-pyrrolo[2,3-d]pyrimidin-7-yl)-5-((R)-1-hydroxybutyl)tetrahydrofuran-3,4-diol]"
5 nM,92 nM,"O[C@@H]1[C@H](O)[C@@H]([C@H](O)c2ccc(F)c(F)c2)O[C@H]1n1ccc2cncnc21 [Example 117, (2R,3S,4R,5R)-2-((R)-(3,4-difluorophenyl)(hydroxy)methyl)-5-(7H-pyrrolo[2,3-d]pyrimidin-7-yl)tetrahydrofuran-3,4-diol]"
4 nM,112 nM,Cc1ncnc2c1ccn2[C@@H]1O[C@H]([C@H](O)c2ccc(F)c(C#N)c2)[C@@H](O)[C@H]1O [Example 13]
2 nM,46 nM,"O[C@@H]1[C@H](O)[C@@H]([C@H](O)c2ccc(Cl)c(F)c2)O[C@H]1n1ccc2cncnc21 [Example 115, (2R,3S,4R,5R)-2-((R)-(4-chloro-3-fluorophenyl)(hydroxy)methyl)-5-(7H-pyrrolo[2,3-d]pyrimidin-7-yl)tetrahydrofuran-3,4-diol]"
114 nM,2700 nM,"CC[C@@H](O)[C@H]1O[C@@H](n2ccc3c(C)ncnc32)[C@H](O)[C@@H]1O [Example 40, (2R,3S,4R,5R)-2-((R)-1-hydroxypropyl)-5-(4-methyl-7H-pyrrolo[2,3-d]pyrimidin-7-yl)tetrahydrofuran-3,4-diol]"
24 nM,1730 nM,"Cc1ccc(C(O)[C@H]2O[C@@H](n3ccc4c(C)ncnc43)[C@H](O)[C@@H]2O)cn1 (stereo in doubt) [Example 110, (2R,3S,4R,5R)-2-((R)-hydroxy(6-methylpyridin-3-yl)methyl)-5-(4-methyl-7H-pyrrolo[2,3-d]pyrimidin-7-yl)tetrahydrofuran-3,4-diol]"
2640 nM,4400 nM,"Cc1ncnc2c1ccn2[C@@H]1O[C@H]([C@@H](O)c2cccc(Cl)c2)[C@@H](O)[C@H]1O [Example 33, (2R,3S,4R,5R)-2-((S)-(3-chlorophenyl)(hydroxy)methyl)-5-(4-methyl-7H-pyrrolo[2,3-d]pyrimidin-7-yl)tetrahydrofuran-3,4-diol]"
1 nM,6 nM,"Nc1ncnc2c1ccn2[C@@H]1O[C@H]([C@H](O)c2ccc(F)c(F)c2)[C@@H](O)[C@H]1O [Example 85, (2R,3R,4S,5R)-2-(4-amino-7H-pyrrolo[2,3-d]pyrimidin-7-yl)-5-((R)-(3,4-difluorophenyl)(hydroxy)methyl)tetrahydrofuran-3,4-diol]"
6 nM,26 nM,"Cc1ncnc2c1ccn2[C@@H]1O[C@H]([C@H](O)c2cccc(F)c2)[C@@H](O)[C@H]1O [Example 34, (2R,3S,4R,5R)-2-((R)-(3-fluorophenyl)(hydroxy)methyl)-5-(4-methyl-7H-pyrrolo[2,3-d]pyrimidin-7-yl)tetrahydrofuran-3,4-diol]"
